Experimental data from patent US20130065883A1 (Centro Nacional de Investigaceiones Oncologicas (CNIO), priority 2010, published 2013).
Where two headings read alike, the source gives them in different places.

Experiments:
PIM-2 = molecular target: T1, PIM-2 (Homo sapiens, UniProt Q9P1W9); test: PIM-2 biochemical assay (ADP Hunter); conditions: semi-quantitative class; read-out: PIM2 IC50;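 also: recombinant N-terminally His-tagged human enzyme, kinase activity quantified by detection of ADP formed as the direct reaction product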
T1 construct: histidine tag (N); made in house

PIM-3 = molecular target: T2, PIM-3 (Homo sapiens, UniProt Q86V86); test: PIM-3 biochemical assay (ADP Hunter); conditions: read-out: PIM3 IC50;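 also: kinase activity read out as the quantity of ADP generated by the enzyme reaction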
T2 construct: purchased Millipore 14-738

FLT3 = molecular target: T3, FLT3 (Homo sapiens, UniProt P36888); test: FLT3 biochemical assay (ADP Hunter);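 also: FLT3 enzymatic activity quantified through the ADP produced by the kinase reaction, detected with an ADP Hunter readout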
T3 sequence (P36888 27-993): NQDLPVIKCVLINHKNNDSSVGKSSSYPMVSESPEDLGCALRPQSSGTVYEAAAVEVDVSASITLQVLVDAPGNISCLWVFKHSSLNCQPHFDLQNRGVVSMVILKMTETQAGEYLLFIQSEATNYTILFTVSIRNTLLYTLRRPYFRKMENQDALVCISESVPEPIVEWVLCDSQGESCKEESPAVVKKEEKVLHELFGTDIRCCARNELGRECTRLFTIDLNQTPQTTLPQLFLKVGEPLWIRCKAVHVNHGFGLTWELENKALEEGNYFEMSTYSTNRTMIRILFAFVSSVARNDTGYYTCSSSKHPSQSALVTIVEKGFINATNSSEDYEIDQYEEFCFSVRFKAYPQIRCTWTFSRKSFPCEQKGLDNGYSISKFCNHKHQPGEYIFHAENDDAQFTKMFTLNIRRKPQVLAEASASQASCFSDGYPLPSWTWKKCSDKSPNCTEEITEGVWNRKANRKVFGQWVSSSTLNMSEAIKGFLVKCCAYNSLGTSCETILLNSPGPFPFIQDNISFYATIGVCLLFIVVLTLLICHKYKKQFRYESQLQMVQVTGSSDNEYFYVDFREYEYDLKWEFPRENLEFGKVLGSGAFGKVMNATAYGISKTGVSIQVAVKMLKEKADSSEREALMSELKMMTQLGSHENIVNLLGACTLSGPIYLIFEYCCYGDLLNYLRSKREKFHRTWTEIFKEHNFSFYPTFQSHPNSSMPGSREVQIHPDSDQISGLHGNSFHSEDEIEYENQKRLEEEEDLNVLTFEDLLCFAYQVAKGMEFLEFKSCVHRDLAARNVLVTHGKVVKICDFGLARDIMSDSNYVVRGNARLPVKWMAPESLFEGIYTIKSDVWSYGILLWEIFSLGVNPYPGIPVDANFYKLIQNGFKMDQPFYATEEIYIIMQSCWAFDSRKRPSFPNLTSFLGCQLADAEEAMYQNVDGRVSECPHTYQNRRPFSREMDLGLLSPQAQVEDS

PIM-1 = molecular target: T4, PIM-1 (Homo sapiens, UniProt P11309); test: PIM-1 biochemical assay (ADP Hunter); conditions: read-out: PIM1 IC50;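 also: recombinant human PIM-1 carrying a C-terminal His tag, kinase activity quantified via ADP formed as the direct enzymatic product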
T4 construct: histidine tag (C); made in house

tumor cell lines = test: Combination assay (MTT in vitro cell proliferation, combination index); format: cell-based; conditions: read-out: Chemo EC50
[1] = actual IC50 value in parentheses
[2] = Homo sapiens, SK-MEL19, SKMel19, melanoma, chemotherapeutic alone
[3] = Homo sapiens, JeKo-1, Jeko-1, Mantle cell lymphoma, chemotherapeutic alone
[4] = Homo sapiens, MV4-11, MV4:11, leukemia (AML), chemotherapeutic alone
[5] = Homo sapiens, MIA PaCa-2, MiaPaca-2, pancreas, chemotherapeutic alone

T1 sequence (Q9P1W9 whole entry): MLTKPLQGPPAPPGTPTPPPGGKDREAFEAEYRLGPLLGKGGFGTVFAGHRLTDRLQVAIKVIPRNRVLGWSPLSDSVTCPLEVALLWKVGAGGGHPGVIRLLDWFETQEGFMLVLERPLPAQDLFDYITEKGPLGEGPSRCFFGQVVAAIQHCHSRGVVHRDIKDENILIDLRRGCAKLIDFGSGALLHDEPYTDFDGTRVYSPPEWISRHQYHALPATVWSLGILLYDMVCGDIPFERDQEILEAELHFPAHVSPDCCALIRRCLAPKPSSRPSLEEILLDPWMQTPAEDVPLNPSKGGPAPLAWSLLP
T4 sequence (P11309 whole entry): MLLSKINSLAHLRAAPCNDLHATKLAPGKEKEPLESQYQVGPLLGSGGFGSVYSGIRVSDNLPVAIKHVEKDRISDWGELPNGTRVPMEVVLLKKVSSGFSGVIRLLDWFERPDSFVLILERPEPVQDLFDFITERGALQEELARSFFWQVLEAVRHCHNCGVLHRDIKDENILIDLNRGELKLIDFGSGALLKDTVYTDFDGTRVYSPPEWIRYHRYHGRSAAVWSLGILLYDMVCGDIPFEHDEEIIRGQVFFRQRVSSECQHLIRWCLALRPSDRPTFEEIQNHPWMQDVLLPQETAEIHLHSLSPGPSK

| SMILES | IC50 (PIM-2) [nM] | IC50 (PIM-3; semi-quantitative class) [nM] | IC50 (FLT3; semi-quantitative class) [nM] | IC50 (PIM-1; semi-quantitative class) [nM] | IC50 (PIM-3; [1]) [nM] | IC50 (PIM-1; [1]) [nM] | other results |
| --- | --- | --- | --- | --- | --- | --- | --- |
| CC(C)N1CCC(CNc2ccc3nnn(-c4cccc(OC(F)(F)F)c4)c3n2)CC1 [2-73] | > 1000 | 100 to 1000 | > 1000 | – | – | – | – |
| CCN1CCC(CNc2ccc3nnn(-c4cccc(OC(F)(F)F)c4)c3n2)CC1 [2-76] | > 1000 | 100 to 1000 | > 1000 | – | – | – | – |
| FC(F)(F)Oc1cccc(-n2nnc3cc(Cl)c(N4CCCC5(CCCN5)CC4)nc32)c1 (stereo not drawn) [2-78] | > 1000 | < 100 | < 100 | < 100 | 56 | – | IC50 (FLT3; [1]): 20 nM |
| FC(F)(F)Oc1cccc(-n2nnc3cc(Cl)c(NC4CC5(CCNCC5)C4)nc32)c1 [2-79] | > 1000 | < 100 | 100 to 1000 | < 100 | 40 | 33 | – |
| CS(=O)(=O)NC1CCN(c2ccc3nnn(-c4cccc(OC(F)(F)F)c4)c3n2)CC1 [2-80] | > 1000 | 100 to 1000 | > 1000 | 100 to 1000 | – | – | – |
| FC(F)(F)c1cccc(-n2nnc3ccc(N4CCCC5(CCCN5)CC4)nc32)c1 (stereo not drawn) [2-81] | > 1000 | 100 to 1000 | 100 to 1000 | < 100 | – | 71 | – |
| FC(F)(F)Oc1cccc(-n2nnc3cc(Br)c(NCC4CCNCC4)nc32)c1 [2-89] | 100 to 1000 | < 100 | < 100 | < 100 | 8 | 11 | IC50 (FLT3; [1]): 58 nM |
| COc1cc(NCC2CC3(CCNCC3)C2)nc2c1nnn2-c1cccc(N(C)C)c1 [2-94] | > 1000 | < 100 | > 1000 | < 100 | 56 | 9 | – |
| COc1cc(NC2CC3(CCNCC3)C2)nc2c1nnn2-c1cccc(N(C)C)c1 [2-96] | > 1000 | < 100 | > 1000 | < 100 | 68 | 32 | – |
| OCCn1cc(-c2ccc3c(c2)CC/C3=N\O)c(-c2ccncc2)n1 [GDC-0879, reference compound] | – | – | – | – | – | – | EC50 (tumor cell lines; [2]): 300 nM |
| CS(=O)(=O)N1CCN(Cc2cc3nc(-c4cccc5[nH]ncc45)nc(N4CCOCC4)c3s2)CC1 [GDC-0941, reference compound] | – | – | – | – | – | – | EC50 (tumor cell lines; Homo sapiens, A549, A549, lung adenocarcinoma, chemotherapeutic alone): 6000 nM; EC50 (tumor cell lines; [3]): 1000 nM; EC50 (tumor cell lines; [4]): 500 nM; EC50 (tumor cell lines; Homo sapiens, NCI-H1975, NCIH1975, non small cell lung carcinoma, chemotherapeutic alone): 20000 nM; EC50 (tumor cell lines; [2]): 500 nM; EC50 (tumor cell lines; PC3, prostate cancer, chemotherapeutic alone): 10000 nM |
| Nc1ccn([C@@H]2O[C@H](CO)[C@@H](O)C2(F)F)c(=O)n1 [Gemcitabine, 4-amino-1-[3,3-difluoro-4-hydroxy-5-(hydroxymethyl)tetrahydrofuran-2-yl]-1H-pyrimidin-2-one, reference compound] | – | – | – | – | – | – | EC50 (tumor cell lines; [5]): 50 nM |
| O=C(NOC[C@H](O)CO)c1ccc(F)c(F)c1Nc1ccc(I)cc1F [PD-0325901, (R)—N-(2,3-dihydroxypropoxy)-3,4-difluoro-2-(2-fluoro-4-iodophenylamino)benz-amide, reference compound] | – | – | – | – | – | – | EC50 (tumor cell lines): 1250 nM |
| CS(=O)(=O)CCNCc1ccc(-c2ccc3ncnc(Nc4ccc(OCc5cccc(F)c5)c(Cl)c4)c3c2)o1 [lapatinib, N-(3-chloro-4-(3-fluorobenzyloxy)phenyl)-6-(5-((2-(methylsulfonyl)ethylamino)-methyl)furan-2-yl)quinazolin-4-amine, reference compound] | – | – | – | – | – | – | EC50 (tumor cell lines; HTC116, colon carcinoma, chemotherapeutic alone): 10000 nM; EC50 (tumor cell lines; [3]): 5000 nM; EC50 (tumor cell lines; [5]): 20000 nM; EC50 (tumor cell lines; [4]): 5000 nM; EC50 (tumor cell lines; Homo sapiens, NCI-H23, NCIH23, non small cell lung carcinoma, chemotherapeutic alone): 10000 nM |
